Laboratory results reported in publication PMC9898036, “VIP152 is a selective CDK9 inhibitor with pre-clinical in vitro and in vivo efficacy in chronic lymphocytic leukemia” (Leukemia, 2022).
Where two headings read alike, the source gives them in different places.

Columns and labels:
Assay in all cases: DiscoverX KINOMEscan kinase profiling (468 assays)
Assay type in all cases: binding
human kinome [1] = biological target: human kinome (Homo sapiens, UniProt Q9NRP7); details: kinase STK36 (Entrez STK36); compound concentration 1000 nM; read-out: Percent Control
Procedure: (§1) Kinomescan Kinase Profiling Assay
(§2) Kinomescan Assay was performed at DiscoverRX and described in Fabian, et al. 2005, Nat.
(§3) Biotechnol. In brief, kinases were produced and subsequently tagged with DNA for qPCR detection.
(§4) Streptavidin-coated magnetic beads were bound to biotinylated kinase ligands to serve as a solid support.
(§5) VIP152 was dissolved in DMSO and tested across a 10 serial threefold dilution set and compared to a test
(§6) compound and a DMSO control.
(§7) Kinome map was produced via TreeSpot
(§8) Analysis from DiscoverRX. […]

human kinome [2] = biological target: human kinome (Homo sapiens, UniProt P10721, D816H); details: KIT(D816H); 100 nM; read-out: Percent Control
Procedure: as §1, §2, §3, §4, §5, §6, §7, §8

human kinome [3] = biological target: human kinome (Homo sapiens, UniProt Q16539); details: read-out: Percent Control
Procedure: as §1, §2, §3, §4, §5, §6, §7, §8

human kinome [4] = biological target: human kinome (Homo sapiens, UniProt Q8N5S9); details: CAMKK1; 100 nM; read-out: Percent Control
Procedure: as §1, §2, §3, §4, §5, §6, §7, §8

human kinome [5] = biological target: human kinome (Homo sapiens, UniProt P53667); details: LIMK1; 100 nM; read-out: Percent Control
Procedure: as §1, §2, §3, §4, §5, §6, §7, §8

human kinome [6] = biological target: human kinome (Homo sapiens, UniProt Q99558); details: read-out: Percent Control
Procedure: as §1, §2, §3, §4, §5, §6, §7, §8

human kinome [7] = biological target: human kinome (Homo sapiens, UniProt Q8TD19); details: read-out: Percent Control
Procedure: as §1, §2, §3, §4, §5, §6, §7, §8

human kinome [8] = biological target: human kinome (Homo sapiens, UniProt P10721, V559D); details: KIT(V559D); 100 nM; read-out: Percent Control
Procedure: as §1, §2, §3, §4, §5, §6, §7, §8

human kinome [9] = biological target: human kinome (Homo sapiens, UniProt P42336, E542K); details: read-out: Percent Control
Procedure: as §1, §2, §3, §4, §5, §6, §7, §8

human kinome [10] = biological target: human kinome (Homo sapiens, UniProt Q8NE63); details: HIPK4; 100 nM; read-out: Percent Control
Procedure: as §1, §2, §3, §4, §5, §6, §7, §8

human kinome [11] = biological target: human kinome (Homo sapiens, UniProt O14965); details: AURKA; 100 nM; read-out: Percent Control
Procedure: as §1, §2, §3, §4, §5, §6, §7, §8

human kinome [12] = biological target: human kinome (Homo sapiens, UniProt Q9Y6E0); details: MST3 (Entrez STK24); 100 nM; read-out: Percent Control
Procedure: as §1, §2, §3, §4, §5, §6, §7, §8

human kinome [13] = biological target: human kinome (Homo sapiens, UniProt O14920); details: IKK-beta (Entrez IKBKB); 100 nM; read-out: Percent Control
Procedure: as §1, §2, §3, §4, §5, §6, §7, §8

human kinome [14] = biological target: human kinome (Homo sapiens, UniProt Q9UQM7); details: CAMK2A; 100 nM; read-out: Percent Control
Procedure: as §1, §2, §3, §4, §5, §6, §7, §8

human kinome [15] = biological target: human kinome (Homo sapiens, UniProt Q96GD4); details: AURKB; 100 nM; read-out: Percent Control
Procedure: as §1, §2, §3, §4, §5, §6, §7, §8

human kinome [16] = biological target: human kinome (Homo sapiens, UniProt P45984); details: JNK2 (Entrez MAPK9); 100 nM; read-out: Percent Control
Procedure: as §1, §2, §3, §4, §5, §6, §7, §8

human kinome [17] = biological target: human kinome (Homo sapiens, UniProt Q9HBH9); details: MKNK2; 100 nM; read-out: Percent Control
Procedure: as §1, §2, §3, §4, §5, §6, §7, §8

human kinome [18] = biological target: human kinome (Homo sapiens, UniProt Q5S007, G2019S); details: LRRK2(G2019S); 100 nM; read-out: Percent Control
Procedure: as §1, §2, §3, §4, §5, §6, §7, §8

human kinome [19] = biological target: human kinome (Homo sapiens, UniProt P49760); details: CLK2; 100 nM; read-out: Percent Control
Procedure: as §1, §2, §3, §4, §5, §6, §7, §8

human kinome [20] = biological target: human kinome (Homo sapiens, UniProt P36888, D835Y); details: FLT3(D835Y); 100 nM; read-out: Percent Control
Procedure: as §1, §2, §3, §4, §5, §6, §7, §8

human kinome [21] = biological target: human kinome (Homo sapiens, UniProt P29320); details: EPHA3; 100 nM; read-out: Percent Control
Procedure: as §1, §2, §3, §4, §5, §6, §7, §8

human kinome [22] = biological target: human kinome (Homo sapiens, UniProt P24723); details: read-out: Percent Control
Procedure: as §1, §2, §3, §4, §5, §6, §7, §8

human kinome [23] = biological target: human kinome (Homo sapiens, UniProt Q13523); details: read-out: Percent Control
Procedure: as §1, §2, §3, §4, §5, §6, §7, §8

human kinome [24] = biological target: human kinome (Homo sapiens, UniProt P33981); details: kinase TTK (Entrez TTK); compound concentration 1000 nM; read-out: Percent Control
Procedure: as §1, §2, §3, §4, §5, §6, §7, §8

human kinome [25] = biological target: human kinome (Homo sapiens, UniProt P11802); details: 100 nM, read-out: Percent Control
Procedure: as §1, §2, §3, §4, §5, §6, §7, §8

human kinome [26] = biological target: human kinome (Homo sapiens, UniProt P42336, C420R); details: read-out: Percent Control
Procedure: as §1, §2, §3, §4, §5, §6, §7, §8

human kinome [27] = biological target: human kinome (Homo sapiens, UniProt P36888, R834Q); details: FLT3(R834Q); 100 nM; read-out: Percent Control
Procedure: as §1, §2, §3, §4, §5, §6, §7, §8

human kinome [28] = biological target: human kinome (Homo sapiens, UniProt P48730); details: CSNK1D; 100 nM; read-out: Percent Control
Procedure: as §1, §2, §3, §4, §5, §6, §7, §8

human kinome [29] = biological target: human kinome (Homo sapiens, UniProt Q05397); details: FAK (Entrez PTK2); 100 nM; read-out: Percent Control
Procedure: as §1, §2, §3, §4, §5, §6, §7, §8

human kinome (Homo sapiens, UniProt P11802), sequence (P11802 whole entry): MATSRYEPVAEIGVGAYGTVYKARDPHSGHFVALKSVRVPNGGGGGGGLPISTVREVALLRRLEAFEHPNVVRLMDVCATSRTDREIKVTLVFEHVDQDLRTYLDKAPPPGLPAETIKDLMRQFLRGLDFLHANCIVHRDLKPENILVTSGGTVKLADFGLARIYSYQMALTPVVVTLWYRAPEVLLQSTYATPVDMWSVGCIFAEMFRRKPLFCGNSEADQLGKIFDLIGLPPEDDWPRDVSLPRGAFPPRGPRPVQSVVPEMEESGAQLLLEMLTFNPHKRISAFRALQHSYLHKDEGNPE
human kinome (Homo sapiens, UniProt P42336, C420R), sequence (P42336 whole entry C420R): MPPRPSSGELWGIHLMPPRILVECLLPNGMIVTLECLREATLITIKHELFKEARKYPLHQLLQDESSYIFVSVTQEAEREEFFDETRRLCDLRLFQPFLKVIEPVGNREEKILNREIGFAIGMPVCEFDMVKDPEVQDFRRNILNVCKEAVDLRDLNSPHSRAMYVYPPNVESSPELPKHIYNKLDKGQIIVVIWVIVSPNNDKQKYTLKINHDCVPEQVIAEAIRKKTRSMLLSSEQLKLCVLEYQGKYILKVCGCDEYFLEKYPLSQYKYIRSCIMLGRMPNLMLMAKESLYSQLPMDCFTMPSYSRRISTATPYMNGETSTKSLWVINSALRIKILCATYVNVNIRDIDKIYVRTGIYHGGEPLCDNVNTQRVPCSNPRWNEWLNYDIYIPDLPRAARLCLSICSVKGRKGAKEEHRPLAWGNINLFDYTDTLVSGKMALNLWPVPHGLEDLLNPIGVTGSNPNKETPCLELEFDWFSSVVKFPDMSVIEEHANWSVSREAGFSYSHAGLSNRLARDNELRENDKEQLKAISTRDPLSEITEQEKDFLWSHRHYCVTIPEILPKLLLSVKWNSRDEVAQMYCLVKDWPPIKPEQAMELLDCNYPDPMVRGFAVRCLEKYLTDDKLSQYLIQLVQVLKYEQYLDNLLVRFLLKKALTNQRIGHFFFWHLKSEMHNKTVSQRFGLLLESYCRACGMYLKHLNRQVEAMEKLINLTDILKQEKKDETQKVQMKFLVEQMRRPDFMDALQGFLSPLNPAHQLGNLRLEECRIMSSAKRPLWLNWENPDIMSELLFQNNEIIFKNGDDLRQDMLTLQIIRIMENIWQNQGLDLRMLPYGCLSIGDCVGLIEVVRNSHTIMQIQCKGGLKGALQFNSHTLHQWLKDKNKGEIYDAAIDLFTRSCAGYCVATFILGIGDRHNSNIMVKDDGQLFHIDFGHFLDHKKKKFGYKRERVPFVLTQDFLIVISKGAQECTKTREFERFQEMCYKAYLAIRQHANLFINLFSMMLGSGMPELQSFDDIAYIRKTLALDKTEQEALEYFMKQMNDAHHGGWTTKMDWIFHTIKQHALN
human kinome (Homo sapiens, UniProt Q99558), sequence (Q99558 whole entry): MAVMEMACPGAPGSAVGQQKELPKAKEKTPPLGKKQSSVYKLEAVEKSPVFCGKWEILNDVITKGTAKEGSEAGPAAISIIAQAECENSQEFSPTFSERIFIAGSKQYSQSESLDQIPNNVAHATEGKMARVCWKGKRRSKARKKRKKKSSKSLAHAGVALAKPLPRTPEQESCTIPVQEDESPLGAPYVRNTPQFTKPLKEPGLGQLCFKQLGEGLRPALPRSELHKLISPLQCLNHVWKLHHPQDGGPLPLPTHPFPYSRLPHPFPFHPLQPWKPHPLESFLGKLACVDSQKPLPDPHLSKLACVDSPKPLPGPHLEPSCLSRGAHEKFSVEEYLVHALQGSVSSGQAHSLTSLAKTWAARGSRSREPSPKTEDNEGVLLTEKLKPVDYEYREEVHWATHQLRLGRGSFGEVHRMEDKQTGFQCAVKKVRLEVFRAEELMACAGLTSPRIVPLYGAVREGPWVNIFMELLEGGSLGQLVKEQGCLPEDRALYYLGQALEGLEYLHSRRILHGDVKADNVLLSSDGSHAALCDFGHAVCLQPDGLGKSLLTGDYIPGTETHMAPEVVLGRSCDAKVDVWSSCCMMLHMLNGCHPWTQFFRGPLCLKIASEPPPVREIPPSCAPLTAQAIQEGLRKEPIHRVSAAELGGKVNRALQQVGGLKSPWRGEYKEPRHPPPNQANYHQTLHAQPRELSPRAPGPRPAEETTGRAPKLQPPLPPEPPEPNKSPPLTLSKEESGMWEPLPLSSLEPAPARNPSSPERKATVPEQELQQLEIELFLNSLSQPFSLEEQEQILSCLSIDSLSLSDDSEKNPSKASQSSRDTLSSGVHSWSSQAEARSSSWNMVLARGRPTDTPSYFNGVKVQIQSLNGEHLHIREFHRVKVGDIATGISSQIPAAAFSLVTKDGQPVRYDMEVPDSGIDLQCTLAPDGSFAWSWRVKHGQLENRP
human kinome (Homo sapiens, UniProt P24723), sequence (P24723 whole entry): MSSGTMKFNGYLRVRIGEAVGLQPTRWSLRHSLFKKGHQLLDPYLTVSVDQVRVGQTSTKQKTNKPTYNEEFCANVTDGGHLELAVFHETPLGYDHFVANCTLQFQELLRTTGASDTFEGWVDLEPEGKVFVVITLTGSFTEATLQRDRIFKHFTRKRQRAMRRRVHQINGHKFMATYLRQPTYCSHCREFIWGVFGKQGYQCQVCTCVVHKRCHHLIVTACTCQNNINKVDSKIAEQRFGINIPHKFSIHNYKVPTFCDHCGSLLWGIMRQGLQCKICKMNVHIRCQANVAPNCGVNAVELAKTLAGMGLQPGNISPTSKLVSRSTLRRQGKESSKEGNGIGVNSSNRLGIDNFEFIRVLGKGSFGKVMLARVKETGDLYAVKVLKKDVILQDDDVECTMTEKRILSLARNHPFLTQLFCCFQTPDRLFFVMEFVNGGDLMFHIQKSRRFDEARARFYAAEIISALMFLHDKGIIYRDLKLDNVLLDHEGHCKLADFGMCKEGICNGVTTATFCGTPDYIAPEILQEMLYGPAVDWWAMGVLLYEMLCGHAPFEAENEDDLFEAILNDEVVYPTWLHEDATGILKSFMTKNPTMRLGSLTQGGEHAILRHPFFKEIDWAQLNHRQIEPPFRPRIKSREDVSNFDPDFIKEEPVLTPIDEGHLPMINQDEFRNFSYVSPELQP
human kinome (Homo sapiens, UniProt Q13523), sequence (Q13523 whole entry): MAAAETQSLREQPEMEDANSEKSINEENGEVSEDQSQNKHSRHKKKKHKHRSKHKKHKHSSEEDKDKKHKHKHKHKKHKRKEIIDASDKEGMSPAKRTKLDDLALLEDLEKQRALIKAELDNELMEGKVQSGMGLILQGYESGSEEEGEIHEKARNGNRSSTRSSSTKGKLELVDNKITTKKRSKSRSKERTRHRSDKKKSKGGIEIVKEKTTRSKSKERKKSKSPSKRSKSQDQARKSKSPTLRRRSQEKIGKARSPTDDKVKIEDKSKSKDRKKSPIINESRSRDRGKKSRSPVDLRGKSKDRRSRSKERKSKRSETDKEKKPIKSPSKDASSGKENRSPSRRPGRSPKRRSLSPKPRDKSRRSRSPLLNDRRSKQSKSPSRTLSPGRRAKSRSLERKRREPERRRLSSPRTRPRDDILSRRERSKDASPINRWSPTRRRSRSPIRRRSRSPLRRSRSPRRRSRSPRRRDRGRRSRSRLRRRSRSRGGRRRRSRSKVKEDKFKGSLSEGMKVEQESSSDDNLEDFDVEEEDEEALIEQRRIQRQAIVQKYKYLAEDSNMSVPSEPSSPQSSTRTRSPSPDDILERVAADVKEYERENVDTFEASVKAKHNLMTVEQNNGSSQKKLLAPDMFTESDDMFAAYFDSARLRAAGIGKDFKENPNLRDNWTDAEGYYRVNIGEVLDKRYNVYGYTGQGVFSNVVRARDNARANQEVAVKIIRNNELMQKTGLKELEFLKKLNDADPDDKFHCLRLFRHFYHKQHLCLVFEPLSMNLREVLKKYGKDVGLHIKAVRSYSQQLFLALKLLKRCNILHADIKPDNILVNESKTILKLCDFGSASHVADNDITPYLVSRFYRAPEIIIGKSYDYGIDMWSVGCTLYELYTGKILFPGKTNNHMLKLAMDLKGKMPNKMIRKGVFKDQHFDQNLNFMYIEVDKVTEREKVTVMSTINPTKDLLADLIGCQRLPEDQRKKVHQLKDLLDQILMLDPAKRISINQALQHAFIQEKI
human kinome (Homo sapiens, UniProt P42336, E542K), sequence (P42336 whole entry E542K): as the sequence (P42336 whole entry C420R) above, with R420C, E542K counted along it
human kinome (Homo sapiens, UniProt Q8TD19), sequence (Q8TD19 whole entry): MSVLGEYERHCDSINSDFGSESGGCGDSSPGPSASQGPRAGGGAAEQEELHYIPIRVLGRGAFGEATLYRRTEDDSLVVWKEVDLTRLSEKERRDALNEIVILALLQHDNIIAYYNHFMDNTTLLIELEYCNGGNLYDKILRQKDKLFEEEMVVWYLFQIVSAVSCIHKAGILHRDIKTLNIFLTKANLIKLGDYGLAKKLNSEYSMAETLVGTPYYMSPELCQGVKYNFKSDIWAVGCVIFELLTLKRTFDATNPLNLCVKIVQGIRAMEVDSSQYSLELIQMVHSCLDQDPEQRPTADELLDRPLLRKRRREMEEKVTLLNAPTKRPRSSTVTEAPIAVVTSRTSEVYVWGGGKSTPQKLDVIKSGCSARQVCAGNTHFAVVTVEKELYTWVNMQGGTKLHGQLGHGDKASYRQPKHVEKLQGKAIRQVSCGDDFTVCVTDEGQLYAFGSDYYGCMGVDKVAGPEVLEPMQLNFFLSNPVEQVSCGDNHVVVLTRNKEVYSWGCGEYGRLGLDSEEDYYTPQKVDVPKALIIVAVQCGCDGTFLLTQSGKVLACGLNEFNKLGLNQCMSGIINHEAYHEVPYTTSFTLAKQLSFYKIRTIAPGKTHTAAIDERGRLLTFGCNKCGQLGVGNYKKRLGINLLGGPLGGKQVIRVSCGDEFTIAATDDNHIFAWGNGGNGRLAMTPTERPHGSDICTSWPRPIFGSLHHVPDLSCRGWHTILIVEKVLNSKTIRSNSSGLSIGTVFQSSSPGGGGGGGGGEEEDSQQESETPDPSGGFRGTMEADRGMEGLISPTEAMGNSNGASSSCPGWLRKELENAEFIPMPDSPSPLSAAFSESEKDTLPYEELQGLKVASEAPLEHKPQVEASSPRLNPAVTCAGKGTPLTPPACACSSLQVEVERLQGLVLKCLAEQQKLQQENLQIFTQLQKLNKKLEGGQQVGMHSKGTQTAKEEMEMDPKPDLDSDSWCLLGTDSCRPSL

COc1cc(F)ccc1-c1cc(Nc2cc(CS(C)(=N)=O)ccn2)ncc1F (centres unmarked) [VIP152]
remaining binding at 1 µM (human kinome [1]): 84% | remaining binding at 0.1 µM (human kinome [2]): 100% | remaining binding at 1 µM (human kinome [3]; kinase p38-alpha (Entrez MAPK14), compound concentration 1000 nM): 100% | remaining binding at 0.1 µM (human kinome [3]; p38-alpha (Entrez MAPK14), 100 nM): 100% | remaining binding at 0.1 µM (human kinome [4]): 89% | remaining binding at 0.1 µM (human kinome [5]): 100% | remaining binding at 0.1 µM (human kinome [6]; NIK (Entrez MAP3K14), 100 nM): 87% | remaining binding at 1 µM (human kinome [6]; kinase NIK (Entrez MAP3K14), compound concentration 1000 nM): 88% | remaining binding at 0.1 µM (human kinome [7]; NEK9, 100 nM): 100% | remaining binding at 1 µM (human kinome [7]; kinase NEK9 (Entrez NEK9), compound concentration 1000 nM): 93% | remaining binding at 0.1 µM (human kinome [8]): 100% | remaining binding at 0.1 µM (human kinome [9]; PIK3CA(E542K), 100 nM): 100% | remaining binding at 1 µM (human kinome [9]; kinase PIK3CA(E542K) (Entrez PIK3CA), compound concentration 1000 nM): 100% | remaining binding at 0.1 µM (human kinome [10]): 100% | remaining binding at 0.1 µM (human kinome [11]): 100% | remaining binding at 0.1 µM (human kinome [12]): 100% | remaining binding at 0.1 µM (human kinome [13]): 100% | remaining binding at 0.1 µM (human kinome [14]): 91% | remaining binding at 0.1 µM (human kinome [15]): 99% | remaining binding at 0.1 µM (human kinome [16]): 89% | remaining binding at 0.1 µM (human kinome [17]): 95% | remaining binding at 0.1 µM (human kinome [18]): 100% | remaining binding at 0.1 µM (human kinome [19]): 61% | remaining binding at 0.1 µM (human kinome [20]): 100% | remaining binding at 0.1 µM (human kinome [21]): 100% | remaining binding at 0.1 µM (human kinome [22]; PRKCH, 100 nM): 100% | remaining binding at 1 µM (human kinome [22]; kinase PRKCH (Entrez PRKCH), compound concentration 1000 nM): 94% | remaining binding at 0.1 µM (human kinome [23]; PRP4 (Entrez PRPF4B), 100 nM): 87% | remaining binding at 1 µM (human kinome [23]; kinase PRP4 (Entrez PRPF4B), compound concentration 1000 nM): 71% | remaining binding at 1 µM (human kinome [24]): 68% | remaining binding at 0.1 µM (human kinome [25]; CDK4-cyclinD1): 85% | remaining binding at 0.1 µM (human kinome [25]; CDK4-cyclinD3): 92% | remaining binding at 0.1 µM (human kinome [25]; CDK4): 100% | remaining binding at 0.1 µM (human kinome [26]; PIK3CA(C420R), 100 nM): 98% | remaining binding at 1 µM (human kinome [26]; kinase PIK3CA(C420R) (Entrez PIK3CA), compound concentration 1000 nM): 92% | remaining binding at 0.1 µM (human kinome [27]): 100% | remaining binding at 0.1 µM (human kinome [28]): 100% | remaining binding at 0.1 µM (human kinome [29]): 100%
